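Five concentrations, 48 hours, 96-well plates. The concentration for 50% growth inhibition is given as GI50. TGI: concentration producing complete growth inhibition.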
Tests used:
Assay in all cases: NCI tumour cell line growth inhibition, 48 h
MDA-MB-231 breast = test system: MDA-MB-231 breast
HS 578T breast = test system: HS 578T breast
HCT-116 colon = test system: HCT-116 colon
T-47D breast = test system: T-47D breast
UACC-62 melanoma = test system: UACC-62 melanoma
EKVX NSCLC = test system: EKVX NSCLC
BT-549 breast = test system: BT-549 breast
KM12 colon = test system: KM12 colon
UO-31 renal = test system: UO-31 renal
OVCAR-8 ovarian = test system: OVCAR-8 ovarian
HOP-62 NSCLC = test system: HOP-62 NSCLC
DU-145 prostate = test system: DU-145 prostate
CCRF-CEM leukemia = test system: CCRF-CEM leukemia
MDA-MB-435 = test system: MDA-MB-435
HOP-92 NSCLC = test system: HOP-92 NSCLC
OVCAR-3 ovarian = test system: OVCAR-3 ovarian
CAKI-1 renal = test system: CAKI-1 renal
SF-268 CNS = test system: SF-268 CNS
TK-10 renal = test system: TK-10 renal
NCI-H226 lung = test system: NCI-H226 lung
SNB-19 CNS = test system: SNB-19 CNS
MCF7 breast = test system: MCF7 breast
786-0 renal = test system: 786-0 renal
IGROV1 ovarian = test system: IGROV1 ovarian
SN12C renal = test system: SN12C renal
OVCAR-4 ovarian = test system: OVCAR-4 ovarian
A498 renal = test system: A498 renal
SK-MEL-28 melanoma = test system: SK-MEL-28 melanoma
HT29 colon = test system: HT29 colon
NCI-H23 lung = test system: NCI-H23 lung
SK-MEL-2 melanoma = test system: SK-MEL-2 melanoma
PC-3 prostate = test system: PC-3 prostate
HCT-15 colon = test system: HCT-15 colon
M14 melanoma = test system: M14 melanoma
NCI-H460 lung = test system: NCI-H460 lung
SK-MEL-5 melanoma = test system: SK-MEL-5 melanoma
HL-60(TB) leukemia = test system: HL-60(TB) leukemia
RXF 393 renal = test system: RXF 393 renal
RPMI-8226 leukemia = test system: RPMI-8226 leukemia
MOLT-4 leukemia = test system: MOLT-4 leukemia
U251 CNS = test system: U251 CNS
ACHN renal = test system: ACHN renal
SW-620 colon = test system: SW-620 colon
LOX IMVI melanoma = test system: LOX IMVI melanoma
SF-539 CNS = test system: SF-539 CNS
SK-OV-3 ovarian = test system: SK-OV-3 ovarian
OVCAR-5 ovarian = test system: OVCAR-5 ovarian
K-562 leukemia = test system: K-562 leukemia
SF-295 CNS = test system: SF-295 CNS
COLO 205 colon = test system: COLO 205 colon
SR leukemia = test system: SR leukemia
NCI/ADR-RES ovarian = test system: NCI/ADR-RES ovarian
A549 NSCLC = test system: A549 NSCLC
SNB-75 CNS = test system: SNB-75 CNS
UACC-257 melanoma = test system: UACC-257 melanoma
HCC-2998 colon = test system: HCC-2998 colon
NCI-H522 lung = test system: NCI-H522 lung

## CC(=O)N1CCN(CCNC(=O)n2cc(-c3ccncc3)c(-c3cc(O)cc(Cl)c3)n2)CC1
MDA-MB-231 breast
  GI50: 11.7 µM
  TGI: 26.7 µM
HS 578T breast
  GI50: 16.7 µM
  TGI: 53.4 µM
HCT-116 colon
  GI50: 5.47 µM
  TGI: 18.8 µM
T-47D breast
  GI50: 16.6 µM
  TGI: 49.2 µM
UACC-62 melanoma
  GI50: 2.95 µM
  TGI: 16.2 µM
EKVX NSCLC
  GI50: 24.6 µM
  TGI: > 100 µM
BT-549 breast
  GI50: 13 µM
  TGI: 27.1 µM
KM12 colon
  GI50: 14 µM
  TGI: 34.4 µM
UO-31 renal
  GI50: 8.95 µM
  TGI: 22.5 µM
OVCAR-8 ovarian
  GI50: 12.2 µM
  TGI: > 100 µM
HOP-62 NSCLC
  GI50: 16.7 µM
  TGI: 32.6 µM
DU-145 prostate
  GI50: 24.3 µM
  TGI: > 100 µM
CCRF-CEM leukemia
  GI50: 11.8 µM
  TGI: 66.5 µM
MDA-MB-435
  GI50: 2.7 µM
  TGI: 15.7 µM
HOP-92 NSCLC
  GI50: 5.93 µM
  TGI: 24.3 µM
OVCAR-3 ovarian
  GI50: 17.3 µM
  TGI: 46.5 µM
CAKI-1 renal
  GI50: 13 µM
  TGI: 38.1 µM
SF-268 CNS
  GI50: 14.6 µM
  TGI: 35.2 µM
TK-10 renal
  GI50: 21.8 µM
  TGI: 50.1 µM
NCI-H226 lung
  GI50: 16.7 µM
  TGI: 40.5 µM
SNB-19 CNS
  GI50: 21.4 µM
  TGI: 78.6 µM
MCF7 breast
  GI50: 14.7 µM
  TGI: 32.9 µM
786-0 renal
  GI50: 10.2 µM
  TGI: 23.3 µM
IGROV1 ovarian
  GI50: 18.5 µM
  TGI: 55.1 µM
SN12C renal
  GI50: 13.7 µM
  TGI: 46.2 µM
OVCAR-4 ovarian
  GI50: 27.8 µM
  TGI: > 100 µM
A498 renal
  GI50: 11.7 µM
  TGI: 28.3 µM
SK-MEL-28 melanoma
  GI50: 3.92 µM
  TGI: 16.8 µM
HT29 colon
  GI50: 3.28 µM
  TGI: 11.9 µM
NCI-H23 lung
  GI50: 17.1 µM
  TGI: 46 µM
SK-MEL-2 melanoma
  GI50: 10.8 µM
  TGI: 27 µM
PC-3 prostate
  GI50: 13.6 µM
  TGI: 57.6 µM
HCT-15 colon
  GI50: 4.25 µM
  TGI: 22.2 µM
M14 melanoma
  GI50: 1.23 µM
  TGI: 4.87 µM
NCI-H460 lung
  GI50: 10.1 µM
  TGI: 26.3 µM
SK-MEL-5 melanoma
  GI50: 3.66 µM
  TGI: 16.9 µM
HL-60(TB) leukemia
  GI50: 7.79 µM
  TGI: 29 µM
RXF 393 renal
  GI50: 3.67 µM
  TGI: 17.7 µM
RPMI-8226 leukemia
  GI50: 4.69 µM
  TGI: 23.4 µM
MOLT-4 leukemia
  GI50: 10.4 µM
  TGI: 49.2 µM
U251 CNS
  GI50: 10.9 µM
  TGI: 26.1 µM
ACHN renal
  GI50: 8.26 µM
  TGI: 61.9 µM
SW-620 colon
  GI50: 10.9 µM
  TGI: 26.9 µM
LOX IMVI melanoma
  GI50: 6.85 µM
  TGI: 22.7 µM
SF-539 CNS
  GI50: 5.73 µM
  TGI: 21.1 µM
SK-OV-3 ovarian
  GI50: 12.4 µM
  TGI: 25.4 µM
OVCAR-5 ovarian
  GI50: 23.8 µM
  TGI: 63.2 µM
K-562 leukemia
  GI50: 4.41 µM
  TGI: 29.4 µM
SF-295 CNS
  GI50: 10.5 µM
  TGI: 25.7 µM
COLO 205 colon
  GI50: 6.26 µM
  TGI: 20.9 µM
SR leukemia
  GI50: 4.78 µM
  TGI: 22.5 µM
NCI/ADR-RES ovarian
  GI50: 22.1 µM
  TGI: > 100 µM
A549 NSCLC
  GI50: 15.1 µM
  TGI: 38.7 µM
SNB-75 CNS
  GI50: 13.5 µM
  TGI: 41.4 µM
UACC-257 melanoma
  GI50: 1.85 µM
  TGI: 4.61 µM
HCC-2998 colon
  GI50: 17.2 µM
  TGI: 32.2 µM
NCI-H522 lung
  GI50: 14.9 µM
  TGI: 34.1 µM

Reference: PubChem BioAssay (NCI)
